Laboratory results reported in patent US20040063662A1, “Selenophene anti-tumor agents” (priority 1996, published 2004).

Assays:
MDA-N = experiment: NCI human tumor cell panel: MDA-N (Breast Cancer); assay type: cell-based; conditions: for GI50: read-out: Log10 GI50 (converted); for IC (TGI): read-out: Log10 TGI (converted)
SK-OV-3 = experiment: NCI human tumor cell panel: SK-OV-3 (Ovarian Cancer); assay type: cell-based; conditions: for GI50: SK-OV-3, read-out: Log10 GI50 (converted); for IC (TGI): SK-OV-3, read-out: Log10 TGI (converted)
HT29 = experiment: NCI human tumor cell panel: HT29 (Colon Cancer); assay type: cell-based; conditions: for GI50: HT-29, HT29, read-out: Log10 GI50 (converted); for IC (TGI): HT-29, HT29, read-out: Log10 TGI (converted)
MOLT-4 = experiment: NCI human tumor cell panel: MOLT-4 (Leukemia); assay type: cell-based; conditions: for GI50: MOLT-4, read-out: Log10 GI50 (converted); for IC (TGI): MOLT-4, read-out: Log10 TGI (converted)
SNB-75 = experiment: NCI human tumor cell panel: SNB-75 (CNS Cancer); assay type: cell-based; conditions: for GI50: SNB-75, read-out: Log10 GI50 (converted); for IC (TGI): SNB-75, read-out: Log10 TGI (converted)
[1] = test system: panel of sixty different human tumor cell lines; experiment: NCI human tumor cell panel: whole panel (mean graph summary); conditions: for GI50 / CC50: Homo sapiens; for GI50: read-out: Log10 GI50, MG_MID, mean over the panel (converted); for CC50: read-out: Log10 LC50, MG_MID, mean over the panel (converted); for Log10 TGI, MG_MID: mean over the panel; for Log10 TGI, Delta / Log10 TGI, Range: whole panel
NCI-H23 = experiment: NCI human tumor cell panel: NCI-H23 (Non-Small Cell Lung Cancer); assay type: cell-based; conditions: for GI50: NCI-H23, read-out: Log10 GI50 (converted)
SK-MEL-2 = experiment: NCI human tumor cell panel: SK-MEL-2 (Melanoma); assay type: cell-based; conditions: for GI50: SK-MEL-2, read-out: Log10 GI50 (converted); for IC (TGI): SK-MEL-2, read-out: Log10 TGI (converted)
UACC-62 = experiment: NCI human tumor cell panel: UACC-62 (Melanoma); assay type: cell-based; conditions: for GI50: UACC-62, read-out: Log10 GI50 (converted); for IC (TGI): UACC-62, read-out: Log10 TGI (converted)
T-47D = experiment: NCI human tumor cell panel: T-47D (Breast Cancer); assay type: cell-based; conditions: T47D; for GI50: read-out: Log10 GI50 (converted); for IC (TGI): read-out: Log10 TGI (converted)
HCT-15 = experiment: NCI human tumor cell panel: HCT-15 (Colon Cancer); assay type: cell-based; conditions: for GI50: HCT-15, read-out: Log10 GI50 (converted); for IC (TGI): HCT-15, read-out: Log10 TGI (converted)
HCT-116 = experiment: NCI human tumor cell panel: HCT-116 (Colon Cancer); assay type: cell-based; conditions: for GI50: HCT-116, read-out: Log10 GI50 (converted); for IC (TGI): HCT-116, read-out: Log10 TGI (converted)
HOP-62 = experiment: NCI human tumor cell panel: HOP-62 (Non-Small Cell Lung Cancer); assay type: cell-based; conditions: for GI50: HOP-62, read-out: Log10 GI50 (converted); for IC (TGI): HOP-62, read-out: Log10 TGI (converted)
SK-MEL-5 = experiment: NCI human tumor cell panel: SK-MEL-5 (Melanoma); assay type: cell-based; conditions: for GI50: SK-MEL-5, read-out: Log10 GI50 (converted); for IC (TGI): SK-MEL-5, read-out: Log10 TGI (converted)
M14 = experiment: NCI human tumor cell panel: M14 (Melanoma); assay type: cell-based; conditions: for GI50: M14, read-out: Log10 GI50 (converted); for IC (TGI): M14, read-out: Log10 TGI (converted)
SN12C = experiment: NCI human tumor cell panel: SN12C (Renal Cancer); assay type: cell-based; conditions: for GI50: read-out: Log10 GI50 (converted); for IC (TGI): read-out: Log10 TGI (converted)
CCRF-CEM = experiment: NCI human tumor cell panel: CCRF-CEM (Leukemia); assay type: cell-based; conditions: for GI50: read-out: Log10 GI50 (converted); for IC (TGI): read-out: Log10 TGI (converted)
MDA-MB-231/ATCC = experiment: NCI human tumor cell panel: MDA-MB-231/ATCC (Breast Cancer); assay type: cell-based; conditions: Homo sapiens, MDA-MB-231, MDA-MB-231/ATCC; for GI50: read-out: Log10 GI50 (converted); for IC (TGI): read-out: Log10 TGI (converted)
COLO 205 = experiment: NCI human tumor cell panel: COLO 205 (Colon Cancer); assay type: cell-based; conditions: for GI50: COLO 205, read-out: Log10 GI50 (converted); for IC (TGI): COLO 205, read-out: Log10 TGI (converted)
MCF7 = experiment: NCI human tumor cell panel: MCF7 (Breast Cancer); assay type: cell-based; conditions: for GI50: MCF7, read-out: Log10 GI50 (converted); for IC (TGI): MCF7, read-out: Log10 TGI (converted)
CAKI-1 = experiment: NCI human tumor cell panel: CAKI-1 (Renal Cancer); assay type: cell-based; conditions: for GI50: CAKI-1, read-out: Log10 GI50 (converted); for IC (TGI): CAKI-1, read-out: Log10 TGI (converted)
DU-145 = experiment: NCI human tumor cell panel: DU-145 (Prostate Cancer); assay type: cell-based; conditions: for GI50: DU-145, read-out: Log10 GI50 (converted); for IC (TGI): DU-145, read-out: Log10 TGI (converted)
SW-620 = experiment: NCI human tumor cell panel: SW-620 (Colon Cancer); assay type: cell-based; conditions: for GI50: SW-620, read-out: Log10 GI50 (converted); for IC (TGI): SW-620, read-out: Log10 TGI (converted)
U251 = experiment: NCI human tumor cell panel: U251 (CNS Cancer); assay type: cell-based; conditions: for GI50: U-251, U251, read-out: Log10 GI50 (converted); for IC (TGI): U-251, U251, read-out: Log10 TGI (converted)
HCC-2998 = experiment: NCI human tumor cell panel: HCC-2998 (Colon Cancer); assay type: cell-based; conditions: for GI50: HCC-2998, read-out: Log10 GI50 (converted); for IC (TGI): HCC-2998, read-out: Log10 TGI (converted)
NCI-H226 = experiment: NCI human tumor cell panel: NCI-H226 (Non-Small Cell Lung Cancer); assay type: cell-based; conditions: NCI-H226, read-out: Log10 GI50 (converted)

Compound: OCc1ccc(-c2ccc(-c3ccc(CO)[se]3)s2)s1 [compound 688830]
- GI50 (MDA-N): 97.7 µM
- IC (TGI) (MDA-N): > 100 µM
- GI50 (SK-OV-3): 3.24 µM
- IC (TGI) (SK-OV-3): 19.5 µM
- GI50 (HT29): 0.224 µM
- IC (TGI) (HT29): 43.7 µM
- GI50 (MOLT-4): 38.9 µM
- IC (TGI) (MOLT-4): > 100 µM
- GI50 (SNB-75): 25.7 µM
- IC (TGI) (SNB-75): > 100 µM
- GI50 [1]: 2.29 µM
- CC50 [1]: 69.2 µM
- Log10 TGI, MG_MID [1]: −4.62
- Log10 TGI, Delta [1]: 2.99
- Log10 TGI, Range [1]: 3.61
- GI50 (NCI-H23): 85.1 µM
- IC (TGI) (NCI-H23; NCI-H23, read-out: Log10 TGI (converted)): > 100 µM
- GI50 (SK-MEL-2): 39.8 µM
- IC (TGI) (SK-MEL-2): > 100 µM
- GI50 (UACC-62): 0.0135 µM
- IC (TGI) (UACC-62): > 100 µM
- GI50 (T-47D): 0.288 µM
- IC (TGI) (T-47D): 57.5 µM
- GI50 (HCT-15): 28.8 µM
- IC (TGI) (HCT-15): > 100 µM
- GI50 (HCT-116): 0.0275 µM
- IC (TGI) (HCT-116): 17.4 µM
- GI50 (HOP-62): 0.0617 µM
- IC (TGI) (HOP-62): 28.2 µM
- GI50 (SK-MEL-5): 36.3 µM
- IC (TGI) (SK-MEL-5): > 100 µM
- GI50 (M14): 37.2 µM
- IC (TGI) (M14): > 100 µM
- GI50 (SN12C): 49 µM
- IC (TGI) (SN12C): > 100 µM
- GI50 (CCRF-CEM): 25.7 µM
- IC (TGI) (CCRF-CEM): > 100 µM
- GI50 (MDA-MB-231/ATCC): 12.6 µM
- IC (TGI) (MDA-MB-231/ATCC): 35.5 µM
- GI50 (COLO 205): 0.447 µM
- IC (TGI) (COLO 205): 5.5 µM
- GI50 (MCF7): 0.0166 µM
- IC (TGI) (MCF7): > 100 µM
- GI50 (CAKI-1): < 0.01 µM
- IC (TGI) (CAKI-1): 0.0282 µM
- GI50 (DU-145): 22.9 µM
- IC (TGI) (DU-145): > 100 µM
- GI50 (SW-620): 0.0398 µM
- IC (TGI) (SW-620): 25.1 µM
- GI50 (U251): 0.0832 µM
- IC (TGI) (U251): 20.9 µM
- GI50 (HCC-2998): 0.0631 µM
- IC (TGI) (HCC-2998): 11.5 µM

Compound: O=Cc1ccc(-c2ccc(-c3ccc(C=O)[se]3)s2)s1 [compound 688829]
- GI50 (MDA-N): 20.9 µM
- IC (TGI) (MDA-N): > 100 µM
- GI50 (SK-OV-3): 26.3 µM
- IC (TGI) (SK-OV-3): > 100 µM
- GI50 (HT29): 23.4 µM
- IC (TGI) (HT29): > 100 µM
- GI50 (MOLT-4): 57.5 µM
- IC (TGI) (MOLT-4): > 100 µM
- GI50 (SNB-75): 75.9 µM
- IC (TGI) (SNB-75): > 100 µM
- GI50 [1]: 5.37 µM
- CC50 [1]: 87.1 µM
- Log10 TGI, MG_MID [1]: −4.35
- Log10 TGI, Delta [1]: 2.75
- Log10 TGI, Range [1]: 3.10
- GI50 (NCI-H23): > 100 µM
- GI50 (SK-MEL-2): 33.9 µM
- IC (TGI) (SK-MEL-2): > 100 µM
- GI50 (UACC-62): 0.141 µM
- IC (TGI) (UACC-62): > 100 µM
- GI50 (T-47D): 0.339 µM
- IC (TGI) (T-47D): > 100 µM
- GI50 (NCI-H226): 0.891 µM
- GI50 (HCT-15): 22.9 µM
- IC (TGI) (HCT-15): > 100 µM
- GI50 (HCT-116): 0.295 µM
- IC (TGI) (HCT-116): > 100 µM
- GI50 (HOP-62): 0.251 µM
- IC (TGI) (HOP-62): 15.8 µM
- GI50 (SK-MEL-5): 23.4 µM
- IC (TGI) (SK-MEL-5): > 100 µM
- GI50 (M14): 20 µM
- IC (TGI) (M14): > 100 µM
- GI50 (SN12C): 28.2 µM
- IC (TGI) (SN12C): 85.1 µM
- GI50 (CCRF-CEM): 7.94 µM
- IC (TGI) (CCRF-CEM): > 100 µM
- GI50 (MDA-MB-231/ATCC): 23.4 µM
- IC (TGI) (MDA-MB-231/ATCC): 67.6 µM
- GI50 (COLO 205): 12 µM
- IC (TGI) (COLO 205): 33.1 µM
- GI50 (MCF7): 0.191 µM
- IC (TGI) (MCF7): > 100 µM
- GI50 (CAKI-1): 0.191 µM
- IC (TGI) (CAKI-1): 0.501 µM
- GI50 (DU-145): > 100 µM
- IC (TGI) (DU-145): > 100 µM
- GI50 (SW-620): 0.832 µM
- IC (TGI) (SW-620): > 100 µM
- GI50 (U251): 0.245 µM
- IC (TGI) (U251): 25.7 µM
- GI50 (HCC-2998): 0.389 µM
- IC (TGI) (HCC-2998): > 100 µM
